Measured values as given in patent US6632808B1 (priority 1998, dated 2003).
Read-outs that look alike come from different tables or passages of the source. Marks after values point to notes of the source that are not given here.

Experiments:
[1] = system: PrP-res formation in scrapie infected neuroblastoma (ScNB) cells; type: cell-based, mouse; conditions: for % control PrP-res (at 10 μg TSP/ml): 10 μg/ml (~10 μM) meso-porphyrin, relative to untreated ScNB cells; for IC50: ScNB cells
[2] = target: conversion of hamster PrP-sen to PrP-res (Mesocricetus auratus, UniProt P04273); type: biochemical; conditions: 10 μg/ml tetrapyrrole; for conversion, % of control: mean SD
[3] = have been reported; cited from earlier work
[4] = mouse, in vivo, ip
[5] = footnote b values are half-way between 10-fold dilutions (~±50%), read-out: IC50 (μM), PrP-res formation, meso-porphyrins

conversion of hamster PrP-sen to PrP-res, sequence (P04273 23-230 limits assumed): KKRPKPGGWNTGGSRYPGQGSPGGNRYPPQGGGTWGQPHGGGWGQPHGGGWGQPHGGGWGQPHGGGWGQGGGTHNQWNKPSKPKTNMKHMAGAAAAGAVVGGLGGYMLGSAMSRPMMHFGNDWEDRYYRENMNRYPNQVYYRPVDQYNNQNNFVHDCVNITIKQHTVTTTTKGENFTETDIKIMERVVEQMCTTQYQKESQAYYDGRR

## C1=Cc2nc1c(-c1ccncc1)c1ccc([nH]1)c(-c1ccncc1)c1nc(c(-c3ccncc3)c3ccc([nH]3)c2-c2ccncc2)C=C1 [T(4-Py)P]
[1]
  % control PrP-res (at 10 μg TSP/ml): 12 ± 0^a %

## C[n+]1ccccc1-c1c2nc(c(-c3cccc[n+]3C)c3ccc([nH]3)c(-c3cccc[n+]3C)c3nc(c(-c4cccc[n+]4C)c4ccc1[nH]4)C=C3)C=C2 [T(N-Me-2-Py)P]
[2]
  inhibition of cell-free conversion, in words: not significantly inhibitory
[1]
  % control PrP-res (at 10 μg TSP/ml): 4 ± 3%
[1]; [5]
  IC50: ~5 µM

## C[n+]1cccc(-c2c3nc(c(-c4ccc[n+](C)c4)c4ccc([nH]4)c(-c4ccc[n+](C)c4)c4nc(c(-c5ccc[n+](C)c5)c5ccc2[nH]5)C=C4)C=C3)c1 [T(N-Me-3-Py)P]
[1]
  % control PrP-res (at 10 μg TSP/ml): 50 ± 0^a %

## C[n+]1ccc(-c2c3nc(c(-c4cc[n+](C)cc4)c4ccc([nH]4)c(-c4cc[n+](C)cc4)c4nc(c(-c5cc[n+](C)cc5)c5ccc2[nH]5)C=C4)C=C3)cc1 [T(N-Me-4-Py)P]
[2]
  conversion, % of control: 66±18%
[1]
  % control PrP-res (at 10 μg TSP/ml): 50 ± 0%

## O=C(O)c1ccc(-c2c3nc(c(-c4ccc(C(=O)O)cc4)c4ccc([nH]4)c(-c4ccc(C(=O)O)cc4)c4nc(c(-c5ccc(C(=O)O)cc5)c5ccc2[nH]5)C=C4)C=C3)cc1 [T(Ph-4-COOH)P]
[1]
  % control PrP-res (at 10 μg TSP/ml): 50 ± 0%

## C[N+](C)(C)c1ccc(-c2c3nc(c(-c4ccc([N+](C)(C)C)cc4)c4ccc([nH]4)c(-c4ccc([N+](C)(C)C)cc4)c4nc(c(-c5ccc([N+](C)(C)C)cc5)c5ccc2[nH]5)C=C4)C=C3)cc1 [T(Ph-4-NMe^+3)P]
[2]
  inhibition of cell-free conversion, in words: not significantly inhibitory
[1]; [5]
  IC50: 5 ± 0.8 µM

## O=S(=O)(O)c1ccc(-c2c3nc(c(-c4ccc(S(=O)(=O)O)cc4)c4ccc([nH]4)c(-c4ccc(S(=O)(=O)O)cc4)c4nc(c(-c5ccc(S(=O)(=O)O)cc5)c5ccc2[nH]5)C=C4)C=C3)cc1 [T(Ph-4-SO^−3)P]
[3]
  tolerability: well tolerated
[1]
  % control PrP-res (at 10 μg TSP/ml): 44 ± 31%
[1]; [5]
  IC50: ~5 µM

## Phthalocyanine tetrasulfonate [PcTS]
[4]
  time detectable in the spleen after treatment had stopped: at least 8 months
[2]
  conversion, % of control: 0±0%
[1]; 10 μg Pc/ml (about 10 μM) in medium, 3-4 days, band intensity relative to untreated ScNB cells, mean ± SD
  % control PrP-res (at 10 μg Pc/ml): <3%
[1]; concentration giving 50% inhibition of PrP-res formation relative to control, footnote a values are half-way between 10-fold dilutions (±50%), read-out: IC50 (μM), PrP-res formation, phthalocyanines
  IC50: 0.5 µM
